For three molecules, IC50 results are on record in patent US20090299044A1 (priority 2006, published 2009).

Bridge positions count the residues as written; N and C are the ends. Peptide text beside a SMILES is read from it. Bounds are passed on as bounds.

Holding throughout (experiment): cell-based
For one test, the target named is human Kv1.1 (Homo sapiens, UniProt Q09470). The arrangement: expressed in transfected cells; host or cells: HEK293. The conditions noted are these: Kv1.1 (IC50, pM).
Another test deals with human Kv1.3 channel (Homo sapiens, UniProt P22001). The class given is cell-based.
A further test addresses T1, human Kv1.1 (HEK293) (Homo sapiens, UniProt Q09470).
T1 construct: expressed in transfected cells; host or cells: HEK293

A further test deals with T2, human Kv1.3 (CHO) (Homo sapiens, UniProt P22001).
T2 construct: expressed in transfected cells; host or cells: CHO
T2 sequence (P22001 whole entry): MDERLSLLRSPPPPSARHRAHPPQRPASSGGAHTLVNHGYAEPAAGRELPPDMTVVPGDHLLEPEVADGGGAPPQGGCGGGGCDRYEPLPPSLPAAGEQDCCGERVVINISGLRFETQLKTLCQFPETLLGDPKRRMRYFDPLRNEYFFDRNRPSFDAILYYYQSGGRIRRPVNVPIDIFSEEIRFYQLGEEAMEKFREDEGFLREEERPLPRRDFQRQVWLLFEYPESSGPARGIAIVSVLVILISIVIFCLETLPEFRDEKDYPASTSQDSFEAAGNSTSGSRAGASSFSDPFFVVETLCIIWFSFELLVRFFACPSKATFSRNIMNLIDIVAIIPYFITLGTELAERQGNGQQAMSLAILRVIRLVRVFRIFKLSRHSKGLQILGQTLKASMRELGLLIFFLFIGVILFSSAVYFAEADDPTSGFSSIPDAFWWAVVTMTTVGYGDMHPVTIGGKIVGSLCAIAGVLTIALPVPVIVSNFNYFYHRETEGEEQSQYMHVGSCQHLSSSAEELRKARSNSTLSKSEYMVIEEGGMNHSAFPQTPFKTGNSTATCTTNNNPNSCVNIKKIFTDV

Sequence of human Kv1.3 channel (P22001 whole entry): as above
T1 sequence (Q09470 whole entry): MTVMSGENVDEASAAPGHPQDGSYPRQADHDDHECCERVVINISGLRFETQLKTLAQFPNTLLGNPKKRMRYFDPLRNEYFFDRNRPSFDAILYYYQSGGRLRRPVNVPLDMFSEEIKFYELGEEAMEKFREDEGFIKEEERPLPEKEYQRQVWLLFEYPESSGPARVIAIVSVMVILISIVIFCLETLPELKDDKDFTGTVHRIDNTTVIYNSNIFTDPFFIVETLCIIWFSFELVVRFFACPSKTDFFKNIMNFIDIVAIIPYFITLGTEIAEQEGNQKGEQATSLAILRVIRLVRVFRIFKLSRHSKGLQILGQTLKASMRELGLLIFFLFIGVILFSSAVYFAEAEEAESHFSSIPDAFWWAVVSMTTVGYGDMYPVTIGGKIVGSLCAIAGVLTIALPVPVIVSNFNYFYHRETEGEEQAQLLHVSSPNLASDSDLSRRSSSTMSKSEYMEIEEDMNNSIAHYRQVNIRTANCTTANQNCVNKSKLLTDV
Sequence of human Kv1.1 (Q09470 whole entry): as above

By IC50 is commonly meant the midpoint of a concentration-inhibition curve. Low readings indicate inhibition by little substance, high ones a need for much substance. `CC[C@H](C)[C@@H]1NC(=O)[C@H](CCCCN)NC(=O)[C@@H](NC(=O)[C@H](CCCCN)NC(=O)[C@@H](NC(=O)[C@H](CC(N)=O)NC(=O)[C@@H](NC(=O)[C@@H](NC(=O)[C@@H](NC(=O)CN)C(C)C)[C@@H](C)CC)[C@@H](C)CC)C(C)C)CSSC[C@@H]2NC(=O)[C@H](CCCCN)NC(=O)CNC(=O)[C@H](Cc3ccccc3)NC(=O)[C@H](CCCNC(=N)N)NC(=O)[C@H](CCSC)NC(=O)CNC(=O)[C@H](C)NC(=O)[C@H](CCCCN)NC(=O)[C@H](CCCCN)NC(=O)[C@@H]3CSSC[C@@H](C(=O)N[C@H](C(=O)N4CCC[C@H]4C(=O)N[C@@H](CCCCN)C(=O)O)[C@@H](C)O)NC(=O)[C@H](Cc4c[nH]cn4)NC(=O)[C@H](CSSC[C@H](NC(=O)[C@H](CCC(N)=O)NC(=O)[C@H](C)NC(=O)[C@H](CO)NC1=O)C(=O)N[C@@H](CC(C)C)C(=O)N[C@@H](CCC(=O)O)C(=O)N1CCC[C@H]1C(=O)N3)NC(=O)[C@H](CCCCN)NC(=O)CNC(=O)[C@H](CC(N)=O)NC(=O)[C@H](CCSC)NC2=O` [R12A] (H-GVIINVKCKISAQCLEPCKKAGMRFGKCMNGKCHCTPK-OH; disulfide 8-28, 14-33, 18-35): the 50% inhibitory concentration (IC50) against human Kv1.1 stood at 440 pM; on human Kv1.3 channel, 0.025 nM; at human Kv1.1 (HEK293) it was 0.0559 nM; against human Kv1.3 (CHO) it was 0.39 nM.
Taken in the same sequence, the figures for `CC[C@H](C)[C@@H]1NC(=O)[C@H](CCCCN)NC(=O)[C@@H](NC(=O)[C@H](CCCCN)NC(=O)[C@@H](NC(=O)[C@H](CC(N)=O)NC(=O)[C@@H](NC(=O)[C@@H](NC(=O)[C@@H](NC(=O)CN)C(C)C)[C@@H](C)CC)[C@@H](C)CC)C(C)C)CSSC[C@@H]2NC(=O)[C@H](CCCCN)NC(=O)CNC(=O)[C@H](Cc3ccccc3)NC(=O)[C@H](CCCNC(=N)N)NC(=O)[C@H](CCSC)NC(=O)CNC(=O)[C@H](C)NC(=O)[C@H](CCCCN)NC(=O)[C@H](CCCCN)NC(=O)[C@@H]3CSSC[C@@H](C(=O)N[C@H](C(=O)N4CCC[C@H]4C(=O)N[C@@H](CCCCN)C(=O)O)[C@@H](C)O)NC(=O)[C@H](Cc4c[nH]cn4)NC(=O)[C@H](CSSC[C@H](NC(=O)[C@H](CCC(N)=O)NC(=O)[C@H](CCCNC(=N)N)NC(=O)[C@H](CCCNC(=N)N)NC1=O)C(=O)N[C@@H](CC(C)C)C(=O)N[C@@H](CCC(=O)O)C(=O)N1CCC[C@H]1C(=O)N3)NC(=O)[C@H](CCCCN)NC(=O)CNC(=O)[C@H](CC(N)=O)NC(=O)[C@H](CCSC)NC2=O` [S11R] (H-GVIINVKCKIRRQCLEPCKKAGMRFGKCMNGKCHCTPK-OH; disulfide 8-28, 14-33, 18-35) were 9130 pM, 0.04 nM, 0.21 nM and 0.0167 nM.
Taken in the same sequence, the figures for `CC[C@H](C)[C@@H]1NC(=O)[C@H](CCCCN)NC(=O)[C@@H](NC(=O)[C@H](CCCCN)NC(=O)[C@@H](NC(=O)[C@H](CC(N)=O)NC(=O)[C@@H](NC(=O)[C@@H](NC(=O)[C@@H](NC(=O)CN)C(C)C)[C@@H](C)CC)[C@@H](C)CC)C(C)C)CSSC[C@@H]2NC(=O)[C@H](CCCCN)NC(=O)CNC(=O)[C@H](Cc3ccccc3)NC(=O)[C@H](CCCNC(=N)N)NC(=O)[C@H](CCSC)NC(=O)CNC(=O)[C@H](C)NC(=O)[C@H](CCCCN)NC(=O)[C@H](CCCCN)NC(=O)[C@@H]3CSSC[C@@H](C(=O)N[C@@H](CCC(=O)O)C(=O)N4CCC[C@H]4C(=O)N[C@@H](CCCCN)C(=O)O)NC(=O)[C@H](Cc4c[nH]cn4)NC(=O)[C@H](CSSC[C@H](NC(=O)[C@H](CCC(N)=O)NC(=O)[C@H](CCCNC(=N)N)NC(=O)[C@H](CO)NC1=O)C(=O)N[C@@H](CC(C)C)C(=O)N[C@@H](CCC(=O)O)C(=O)N1CCC[C@H]1C(=O)N3)NC(=O)[C@H](CCCCN)NC(=O)CNC(=O)[C@H](CC(N)=O)NC(=O)[C@H](CCSC)NC2=O` [T36E] (H-GVIINVKCKISRQCLEPCKKAGMRFGKCMNGKCHCEPK-OH; disulfide 8-28, 14-33, 18-35) were 83900 pM, 1.92 nM, > 3.33 nM and 0.161 nM.
